Like-named read-outs stand apart in the source and are kept apart here.
Test: Storage stability of nasal sprays with preservatives
Description: As the preservative, for example, benzalkonium chloride, which is often employed in the field of nasal drops, may be used. […] In addition to the free acids as such, their partially or completely neutralized salts may also be added to the nasal sprays.

SMILES | storage stability of the nasal spray (preservative in nasal spray, compared to benzalkonium chloride) | storage stability of the nasal spray
O=C(O)c1ccccc1 [benzoic acid] | significant extension of the storage stability | –
C/C=C/C=C/C(=O)O [sorbic acid] | – | significant extension of the storage stability

Source: patent US20100062068A1, “CISTUS EXTRACTS” (KREWEL […], priority 2007, published 2010)
